Assay results reported in patent publication US7074816B2, “1 2 4-triazole compound” (Fuji Yakuhin Co., Ltd., priority 2002, dated 2006).

Molecular target: T1, xanthine oxidase (Rattus norvegicus, UniProt P22985)
T1 construct: administered orally to seven-week-old male Wistar rats (4 rats per group); from tissue; host or cells: whole animal (male Wistar rats); the enzyme is endogenous and was not isolated
Assay: Effect of lowering serum uric acid level in vivo (oral, Wistar rats)
Conditions: male Wistar rats, 0.3 mg/5 ml/kg in 0.5% methylcellulose, blood collected 6 hours after administration
Experimental: Method for Evaluating the Effect of Lowering Serum Uric Acid Level In Vivo
Each of the test compounds was suspended in a 0.5% methylcellulose (MC) aqueous solution and administered orally to seven-week-old male Wistar rats (4 rats per group) compulsorily through a feeding tube at a dose of 0.3 mg/5 ml/kg (1 mg/5 ml/kg for Example 17 and Compound 44 of J. Medicinal Chemistry, (1975) as a control). The blood was collected from the orbital sinus at 6 hours after administration of the test compound. Each blood sample was allowed to clot for one hour and then centrifuged at 2000×g for 10 minutes to obtain serum. The uric acid level in the serum was determined using a kit (Wako Pure Chemicals Industries, Ltd.; phosphotungstic acid method) and a reduction rate of serum uric acid level was calculated by the following formula:
Reduction rate of serum uric acid level=(1-Average serum uric acid level in the group receiving a test compound/Average serum uric acid level in the group receiving MC)×100

T1 sequence (P22985 whole entry): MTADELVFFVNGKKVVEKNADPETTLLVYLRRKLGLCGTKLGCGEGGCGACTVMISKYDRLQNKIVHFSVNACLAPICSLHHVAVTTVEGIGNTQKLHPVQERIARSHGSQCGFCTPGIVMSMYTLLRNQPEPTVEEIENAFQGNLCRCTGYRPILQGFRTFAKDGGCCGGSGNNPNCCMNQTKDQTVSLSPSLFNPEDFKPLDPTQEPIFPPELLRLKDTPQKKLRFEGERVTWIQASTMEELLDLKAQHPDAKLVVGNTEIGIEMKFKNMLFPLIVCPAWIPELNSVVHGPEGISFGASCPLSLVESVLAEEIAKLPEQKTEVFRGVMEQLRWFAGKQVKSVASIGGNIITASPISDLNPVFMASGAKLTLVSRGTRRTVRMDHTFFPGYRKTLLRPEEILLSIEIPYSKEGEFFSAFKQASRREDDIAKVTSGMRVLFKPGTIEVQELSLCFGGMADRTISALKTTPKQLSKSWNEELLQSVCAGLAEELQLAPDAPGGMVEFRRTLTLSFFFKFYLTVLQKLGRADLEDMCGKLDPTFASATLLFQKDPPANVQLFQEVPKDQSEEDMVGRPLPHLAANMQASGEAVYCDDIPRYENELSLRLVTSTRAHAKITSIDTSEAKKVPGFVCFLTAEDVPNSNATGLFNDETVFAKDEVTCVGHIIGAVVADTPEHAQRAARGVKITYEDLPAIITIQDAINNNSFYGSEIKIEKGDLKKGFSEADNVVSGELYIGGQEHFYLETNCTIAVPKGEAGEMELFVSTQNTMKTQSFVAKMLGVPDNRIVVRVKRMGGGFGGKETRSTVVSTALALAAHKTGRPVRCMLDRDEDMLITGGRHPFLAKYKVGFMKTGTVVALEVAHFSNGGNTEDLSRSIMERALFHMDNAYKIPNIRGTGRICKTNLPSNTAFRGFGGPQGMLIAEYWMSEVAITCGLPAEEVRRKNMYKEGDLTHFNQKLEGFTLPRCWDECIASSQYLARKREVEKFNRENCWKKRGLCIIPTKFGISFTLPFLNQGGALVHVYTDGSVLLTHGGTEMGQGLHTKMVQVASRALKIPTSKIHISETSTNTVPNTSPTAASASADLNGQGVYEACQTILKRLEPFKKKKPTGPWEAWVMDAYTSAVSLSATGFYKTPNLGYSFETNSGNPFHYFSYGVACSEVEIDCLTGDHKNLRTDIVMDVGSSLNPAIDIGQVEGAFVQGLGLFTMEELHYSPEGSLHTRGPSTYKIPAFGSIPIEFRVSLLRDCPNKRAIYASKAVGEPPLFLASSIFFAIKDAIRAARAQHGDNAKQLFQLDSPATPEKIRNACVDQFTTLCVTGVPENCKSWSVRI

| Reduction rate of serum uric acid level | Structure (SMILES) |
| --- | --- |
| 41.1% | Cc1cc(-c2nc(-c3ccnc(C#N)c3)n[nH]2)ccn1 [Example 23, 3-(2-cyano-4-pyridyl)-5-(2-methyl-4-pyridyl)-1,2,4-triazole] |
| 35.3% | C#CCOc1ccc(-c2nc(-c3ccnc(C)c3)n[nH]2)cc1C#N [Example 28, 3-(2-methyl-4-pyridyl)-5-(3-cyano-4-propargyloxyphenyl)-1,2,4-triazole] |
| 38.3% | COc1ccc(COc2ccc(-c3nc(-c4ccnc(C)c4)n[nH]3)cc2C#N)cc1 [Example 24, 3-(2-methyl-4-pyridyl)-5-[3-cyano-4-(4-methoxybenzyloxy)phenyl]-1,2,4-triazole] |
| 32.6% | Cc1cc(-c2n[nH]c(-c3ccc(OCC4CC4)c(C#N)c3)n2)ccn1 [Example 22, 3-(2-methyl-4-pyridyl)-5-(3-cyano-4-cyclopropylmethoxyphenyl)-1,2,4-triazole] |
| 46.8% | N#Cc1cc(-c2n[nH]c(-c3cc[n+]([O-])cc3)n2)ccn1 [Example 35, 3-(2-cyano-4-pyridyl)-5-(1-oxy-4-pyridyl)-1,2,4-triazole] |
| 33.6% | N#Cc1cc(-c2n[nH]c(-c3ccnc(Cl)c3)n2)ccn1 [Example 37, 3-(2-cyano-4-pyridyl)-5-(2-chloro-4-pyridyl)-1,2,4-triazole] |
| 37.9% | COc1ccc(-c2nc(-c3ccnc(C)c3)n[nH]2)cc1C#N [Example 26, 3-(2-methyl-4-pyridyl)-5-(3-cyano-4-methoxyphenyl)-1,2,4-triazole] |
| 44.7% | COCCOCCOCCOc1ccc(-c2nc(-c3ccnc(C)c3)n[nH]2)cc1C#N [Example 33, 3-(2-methyl-4-pyridyl)-5-[3-cyano-4-{(<2-methoxyethoxy>ethoxy)ethoxy}phenyl]-1,2,4-triazole] |
| 32.9% | Cc1cc(-c2nc(-c3ccnc(Cl)c3)n[nH]2)ccn1 [Example 27, 3-(2-chloro-4-pyridyl)-5-(2-methyl-4-pyridyl)-1,2,4-triazole] |
| 36.5% | COCCOc1ccc(-c2nc(-c3ccnc(C)c3)n[nH]2)cc1C#N [Example 31, 3-(2-methyl-4-pyridyl)-5-(3-cyano-4-methoxyethoxyphenyl)-1,2,4-triazole] |
| 52.0% | COCCOCCOc1ccc(-c2nc(-c3ccnc(C)c3)n[nH]2)cc1C#N [Example 32, 3-(2-methyl-4-pyridyl)-5-[3-cyano-4-{(2-methoxyethoxy)ethoxy}phenyl]-1,2,4-triazole] |
| 40.7% | Cc1cc(-c2n[nH]c(-c3ccc(OCCOCCOCCCl)c(C#N)c3)n2)ccn1 [Example 29, 3-(2-methyl-4-pyridyl)-5-[3-cyano-4-{(<2-chloroethoxy>ethoxy)ethoxy}phenyl]-1,2,4-triazole] |
| 47.2% | Cc1cc(-c2n[nH]c(-c3ccc(OCCC(C)C)c(C#N)c3)n2)ccn1 [Example 25, 3-(2-methyl-4-pyridyl)-5-(3-cyano-4-isopentyloxyphenyl)-1,2,4-triazole] |

The remaining lines, values behind:

| Structure (SMILES) | Reduction rate of serum uric acid level |
| --- | --- |
| Cc1cc(-c2nc(-c3ccc(OCC(C)C)c([N+](=O)[O-])c3)nn2COC(=O)C(C)(C)C)ccn1 [Example 14, 3-(4-isobutoxy-3-nitrophenyl)-5-(2-methyl-4-pyridyl)-N-pivaloyloxymethyl-1,2,4-triazole] | 43.0% |
| Cc1cc(-c2nc(-c3ccc(OCC(C)C)c([N+](=O)[O-])c3)n[nH]2)ccn1 [Example 1, 3-(4-isobutoxy-3-nitrophenyl)-5-(2-methyl-4-pyridyl)-1,2,4-triazole] | 66.5% |
| Cc1cc(-c2n[nH]c(-c3ccc(OCC(C)C)c(C#N)c3)n2)ccn1 [Example 20, 3-(2-methyl-4-pyridyl)-5-(3-cyano-4-isobutoxyphenyl)-1,2,4-triazole] | 67.5% |
| COc1ccc(-c2nc(-c3ccnc(C)c3)n[nH]2)cc1[N+](=O)[O-] [Example 21, 3-(2-methyl-4-pyridyl)-5-(3-nitro-4-methoxyphenyl)-1,2,4-triazole] | 52.9% |
| COCCOCOc1ccc(-c2n[nH]c(-c3ccnc(C)c3)n2)cc1C#N [Example 3, 3-[3-cyano-4-{(2-methoxy)ethoxymethyl}oxyphenyl]-5-(2-methyl-4-pyridyl)-1,2,4-triazole] | 40.0% |
| Cc1cc(-c2nc(-c3ccc(NCC(C)C)c([N+](=O)[O-])c3)n[nH]2)ccn1 [Example 5, 3-(4-isobutylamino-3-nitrophenyl)-5-(2-methyl-4-pyridyl)-1,2,4-triazole] | 39.9% |
| Cc1cc(-c2nc(-c3ccc(OCOCc4ccccc4)c([N+](=O)[O-])c3)n[nH]2)ccn1 [Example 10, 3-(4-benzyloxymethyloxy-3-nitrophenyl)-5-(2-methyl-4-pyridyl)-1,2,4-triazole] | 41.6% |
| CC(C)Oc1ccc(-c2nc(-c3ccncc3)n[nH]2)cc1[N+](=O)[O-] [Example 16, 5-(4-isopropoxy-3-nitrophenyl)-3-(4-pyridyl)-1,2,4-triazole] | 36.1% |
| CCCCOc1ccc(-c2n[nH]c(-c3ccncc3)n2)cc1[N+](=O)[O-] [Example 15, 3-(4-butoxy-3-nitrophenyl)-5-(4-pyridyl)-1,2,4-triazole] | 41.2% |
| CC(C)COc1ccc(-c2n[nH]c(-c3ccncc3)n2)cc1[N+](=O)[O-] [Example 13, 3-(4-isobutoxy-3-nitrophenyl)-5-(4-pyridyl)-1,2,4-triazole] | 46.8% |
| Cc1cc(-c2nc(-c3ccc(Sc4ccccc4)c([N+](=O)[O-])c3)n[nH]2)ccn1 [Example 6, 5-(2-methyl-4-pyridyl)-3-(3-nitro-4-phenylthiophenyl)-1,2,4-triazole] | 40.6% |
| Cc1cc(-c2nc(-c3ccc(OCC4CCCCO4)c([N+](=O)[O-])c3)n[nH]2)ccn1 (centres unmarked) [Example 11, 5-(2-methyl-4-pyridyl)-3-[3-nitro-4-(2-tetrahydropyranylmethyl)oxyphenyl]-1,2,4-triazole] | 41.6% |
| CSCOc1ccc(-c2n[nH]c(-c3ccnc(C)c3)n2)cc1[N+](=O)[O-] [Example 9, 5-(2-methyl-4-pyridyl)-3-(4-methylthiomethyloxy-3-nitrophenyl)-1,2,4-triazole] | 35.7% |
| CC(C)COc1ccc(-c2n[nH]c(-c3ccncc3)n2)cc1C#N [Example 2, 3-(3-cyano-4-isobutoxyphenyl)-5-(4-pyridyl)-1,2,4-triazole] | 62.3% |
| Cc1cc(-c2nc(-c3ccc(OCSc4ccccc4)c([N+](=O)[O-])c3)n[nH]2)ccn1 [Example 8, 5-(2-methyl-4-pyridyl)-3-(3-nitro-4-phenylthiomethyloxyphenyl)-1,2,4-triazole] | 32.5% |
| N#Cc1cc(-c2nc(-c3ccncc3)n[nH]2)ccn1 [Example 12, 5-(2-cyano-4-pyridyl)-3-(4-pyridyl)-1,2,4-triazole] | 51.1% |
| Cc1cc(-c2nc(-c3ccc(SCC(C)C)c([N+](=O)[O-])c3)n[nH]2)ccn1 [Example 7, 3-(4-isobutylthio-3-nitrophenyl)-5-(2-methyl-4-pyridyl)-1,2,4-triazole] | 42.7% |
| Cc1cc(-c2nc(-c3ccc(N4CCN(C)CC4)c([N+](=O)[O-])c3)n[nH]2)ccn1 [Example 4, 3-[4-(4-methyl-1-piperazino)-3-nitrophenyl]-5-(2-methyl-4-pyridyl)-1,2,4-triazole] | 43.9% |

Same assay, conditions: male Wistar rats, 1 mg/5 ml/kg in 0.5% methylcellulose, blood collected 6 hours after administration

| Structure (SMILES) | Reduction rate of serum uric acid level |
| --- | --- |
| CC(C)COc1ccc(-c2n[nH]c(-c3ccnc(Cl)c3)n2)cc1[N+](=O)[O-] [Example 17, 5-(2-chloro-4-pyridyl)-3-(4-isobutoxy-3-nitrophenyl)-1,2,4-triazole] | 40.6% |
